Data from US11918572B2, “Pharmaceutical compositions for treating pain” (REBEL MEDICINE INC, priority 2022, dated 2024).

Legend:
[1] = controlled release of drug from the formulation (dialysis bag in PBS sink, UV 272 nm); type: physicochemical
Method: (§1) The controlled release of the formulation was evaluated where 0.5 mL of the formulation was placed into a dialysis bag (10 kDa) and submerged in 50 mL sink of phosphate buffered saline (1×; pH 7.4). The samples were placed into a rotating incubator (1 Hz) at 37° C. At designated timepoints, 2 mL of saline was removed and analyzed using ultraviolet visible spectrophotometry (272 nm). The entire sink medium was replaced at each timepoint until drug no longer eluted out of the system.
as §1, with “The release of bupivacaine is shown in a formulation including MCT oil and glycerol monostearate as a structuring agent with and without the presence of an anion to increase hydrophobicity. […] The controlled” for “The controlled”, “buffered saline (lx; pH 7.4).” for “buffered saline (1×; pH 7.4).”

[2] = max solubility of bupivacaine in oil (37° C. overnight, centrifuge, UV 272 nm)
Method: The solubility of bupivacaine in a blend of MCT oil and castor oil was studied. […] The max solubility of the oil blends was determined by adding 300 mg of bupivacaine free base into 3 mL of an MCT: castor oil mixture. […] After rotating, samples were spun in a centrifuge at 2000×g for 5 minutes. Next, 30 uL of sample supernatant was taken and dissolved to 1470 uL of ethanol and analyzed using ultraviolet visible spectrophotometry (272 nm).

[3] = solubility of ropivacaine forms in lipophilic oils; type: physicochemical

With `CCCCC(CC)COC(=O)CC(C(=O)OCC(CC)CCCC)S(=O)(=O)O.CCCCN1CCCCC1C(=O)Nc1c(C)cccc1C` (stereo not drawn) [bupivacaine with docusate, bupivacaine docusate] the “release of bupivacaine with and without an anion” value ([1]; FIG. 13, MCT oil and glycerol monostearate, PBS pH 7.4, 37° C.) was “prolonged”.
With `CCCCN1CCCCC1C(=O)Nc1c(C)cccc1C` (stereo not drawn) [bupivacaine] the “drug release with specific blends of oil” value ([1]; MCT oil:castor oil blends) was “slows”, the “drug solubility in castor oil versus MCT” value [2] was “higher drug solubility in castor oil than MCT” and the “solubility of bupivacaine (drug loading) in blends of MCT oil and castor oil” value ([2]; FIG. 11, 37° C. overnight) was “drug loading increases with specific blends of oil”.
For `CCCCC(CC)COC(=O)CC(C(=O)OCC(CC)CCCC)S(=O)(=O)O.CCCN1CCCCC1C(=O)Nc1c(C)cccc1C` (stereo not drawn) [ropivacaine docusate], the “solubility in lipophilic oils such as medium-chain triglycerides” value [3] was “suitable solubility”.
With `CCCN1CCCC[C@H]1C(=O)Nc1c(C)cccc1C` [ropivacaine] the “solubility in lipophilic oils such as medium-chain triglycerides” value [3] was “poor solubility”.
